The results in this text go back to patent publication US9688633B2, “Substituted piperidines with antiparasitic activity” (INSTITUT DE RECHERCHE POUR LE DEVELOPPEMENT, priority 2014, dated 2017).

Read-outs that look alike come from different tables or passages of the source. A value given as a limit tells only on which side of the number the result lay.

Data set [1] deals with Plasmodium falciparum FCR-3. Kind of data set: In vitro antiplasmodial drug assay ([3H]-hypoxanthine incorporation). The class given is cell-based. The procedure:
The drugs dissolved in dimethylsulfoxide (DMSO) were added at final concentrations ranging from 200 to 0.1 μM. All experiments were performed in triplicate. The final DMSO concentration was never greater than 0.1%. […].
% Inhibition of the incorporation of labeled hypoxanthine=100−(P/T*100),
P: c.p.m. for every concentration, and
T: negative control (red blood cells without drug).

Data set [2] in a line: Toxicity assay, MTT viability on VERO cells. The settings on record: African green monkey. The class given is cell-based, African Green Monkey. The procedure: (§1) Drugs were added at different concentrations and the cells were cultured for 48 hours. The effect was determined using the 3-(4,5-dimethylthiazol-2-yl)-2,5-diphenyltetrazolium bromide (MTT) viability assay. Four hours after the addition of MTT, 100 μl of lysis buffer (50% isopropanol, 30% water, 20% SDS) were added and the cells were incubated at room temperature for 15 min under agitation. Finally, optical density was read at 590 nm with a 96-well scanner (Bio-Rad). All experiments were performed in triplicate.

Another data set relates to VERO cells. Description: Toxicity assay, MTT viability on VERO cells. The class given is cell-based, African Green Monkey. The settings on record: VERO cells survival, 48 hours, MTT; average of three independent determinations; read-out: TC50 (the source's name). The method, then:
as §1

The next data set deals with P. berghei ANKA. Kind of data set: In vivo antiplasmodial drug assay (4-day suppressive test) in murine model. The settings on record: Swiss male mice, 4 consecutive days, read on day 4. The method, then: The antiplasmodial activity of Compound 7 was tested in vivo in a murine model. The antiplasmodial activity of a Compound A representative of the prior art was also tested: Studies were conducted according to the French and Colombian guidelines on laboratory animal use and care (No 2001-464 and No 008430, respectively). The classical 4-day suppressive test was carried out (W. Peters, Chemotherapy and drug resistance in malaria, Academic Press: London, 1970). Swiss male mice weighing 20±2 g, were infected with 10^7 P. berghei ANKA parasitized cells (day 0). […] […] Survival of the mice was checked daily and the percentage of parasitized erythrocytes was determined on day 4, by Giemsa-stained thin blood smears made from peripheral blood. The percentage of inhibition of parasitaemia was calculated.

In another data set the test system is mice. Kind of data set: Cytotoxicity (toxicity) after administration in a malaria murine model. The data set is classed as in vivo, mouse. The settings on record: 50 mg·kg^-1, malaria murine model. The procedure:
The cytotoxicity of Compound 7 was compared to the cytotoxicity of Compound 31 of the publication of Silvia Perez-Silanes et al., Molecules 2009, 14, 4120-4135, the compounds only differentiated by the nature of the Ar group (4-fluoro-1-phenyl group vs benzo[b]thiophenyl).
Both compounds were administered at 50 mg·kg^−1 in a malaria murine model.

[3] abbreviates: FCR3, chloroquine-resistant FCR-3 strain, 50% of Plasmodium falciparum growth, average of three independent determinations, read-out: IC50.
Where [4] appears, read: chloroquine-resistant FCR-3 strain, 50% of Plasmodium falciparum growth, average of three independent determinations, read-out: IC50.

Usually IC50 stands for the concentration at which inhibition is half-maximal. For `O=[N+]([O-])c1ccc(N2CCC(NCCC(O)c3ccc(F)c4ccccc34)CC2)c(C(F)(F)F)c1` (stereo not drawn) [Compound 5, 1-(4-fluoronaphthalen-1-yl)-3-((1-(4-nitro-2-(trifluoromethyl)phenyl)piperidin-4-yl)amino)propan-1-ol], in data set [1] (setting [3]), the IC50 is 0.15 µM. Moreover, the CC50 at 48 h in data set [2] (VERO cells (kidney epithelial cells), VERO cells survival, 48 hours, MTT, average of three independent determinations, read-out: TC50) came to 5.5 µM.
Usually melting point stands for the temperature of the solid-liquid transition. In the case of `OC(CCN1CC=C(c2ccc(F)cc2)CC1)c1ccc2ccccc2c1` (stereo not drawn) [Compound 3, 3-[4-(4-fluorophenyl)-3,6-dihydropyridin-1(2H)-yl]-1-(naphthalen-2-yl)propan-1-ol], the melting point was in the range of 127 to 129 °C. Besides, in data set [1] (setting [3]), the IC50 was 36.1 µM. In data set [2], this compound displayed a CC50 at 48 h of more than 100 µM.
Turning to `OC(CCN1CC=C(c2ccc(F)cc2)CC1)c1ccc(F)c2ccccc12` (stereo not drawn) [Compound 6, 1-(4-fluoronaphthalen-1-yl)-3-[4-(4-fluorophenyl)-3,6-dihydropyridin-1(2H)-yl]propan-1-ol], in data set [1] (setting [3]), the IC50 is 0.4 µM. The compound further had a CC50 at 48 h in data set [2] of more than 50 µM.
In the case of `OC(CCN1CC=C(c2ccc(F)cc2)CC1)c1ccc(F)cc1` (stereo not drawn) [Compound 8, 1-(4-fluorophenyl)-3-[4-(4-fluorophenyl)-3,6-dihydropyridin-1 (2H)-yl]propan-1-ol], the melting point was in the range of 199 to 201 °C. The IC50 in data set [1] (setting [3]) was 0.66 µM. The CC50 at 48 h in data set [2] was more than 100 µM.
Take “3-[4-(4-fluorophenyl)-3,6-dihydropyridin-1(2H)-yl]-1-(4-(trifluoromethyl phenyl)propan-1-ol) [Compound 4]”: the IC50 in data set [1] (setting [4]) is 5.6 µM. In addition, the CC50 with VERO cells was more than 100 µM.
As for `Cl.O=[N+]([O-])c1ccc(N2CCC(NCCC(O)c3ccc(F)cc3)CC2)c(C(F)(F)F)c1` (stereo not drawn) [Compound 7], in data set [1] (setting [4]), the IC50 was found to be 0.48 µM. Further, the CC50 with VERO cells worked out at 30.2 µM. Moreover, in the data set with P. berghei ANKA (50 mg/kg/day oral), the “percentage of inhibition of parasitaemia” value was 76%. The cytotoxicity after administration result with mice is recorded as “No cytotoxicity was detected”.
Regarding `CCN(CC)CCCC(C)Nc1ccnc2cc(Cl)ccc12` (stereo not drawn) [CQ, chloroquine, reference compound], in data set [1] (Plasmodium falciparum, FCR3), the IC50 was 0.13 µM. For the same compound, the “percentage of inhibition of parasitaemia” value in the data set on P. berghei ANKA (3 mg/kg/day oral) is given as 65%.
